{"source": "patent US10780076B2", "about": "“Inhibition of cancer cell motility” (Northwestern University, priority 2014, dated 2020)", "key": {"[1]": {"test_system": "protein phosphorylation (kinome) in PC3-M and PC3 cells", "experiment": "KinomeView phospho-motif antibody screen", "type": "cell-based, human", "settings": "10 μM, 3 days, ±TGFβ", "protocol": "FIG. 14A-D. Proteomic analysis of the effects of KBU2046 on the kinome. Screening for effects on the kinome. PC3-M cells were pre-treated with 10 μM KBU2046, genistein or vehicle control for 3 days, then with ±TGFB, as indicated. Resultant cell lysate, as well as lysate from tumors from mice treated with 150 mg/kg KBU2046 or control mice (from manuscript FIG. 3A), were then probed with the KinomeView® panel of antibodies by Western blot. In instances where KBU2046 was inhibiting protein phosphorylation in cells and in tumors, a repeat experiment of PC3-M cells was conducted. In addition to including PC3-M cells, experiments were expanded to examine effects on PC3 cells. […] (C,D) All other Western blots of phospho-motif antibodies that were evaluated on initial screen. NI=tumor not informative; this denotes a tumor sample that yielded an abnormal coomassie blue staining pattern.\nScreening for changes in the kinome induced by KBU2046 were evaluated with the Kinoview™ assay system. […]\nThe KinomeView® panel of antibodies (Cell Signaling Technology, Inc.) detects established protein phosphorylation motifs, and were was to probe for KBU2046-induced changes in protein phosphorylation (FIG. 5A; FIGS. 14A-D). […] Genistein was evaluated under identical treatment conditions for comparison. […]"}, "MKK4": {"target": "T1, MKK4 (Homo sapiens, UniProt P45985)", "T1 sequence (P45985 1-399)": "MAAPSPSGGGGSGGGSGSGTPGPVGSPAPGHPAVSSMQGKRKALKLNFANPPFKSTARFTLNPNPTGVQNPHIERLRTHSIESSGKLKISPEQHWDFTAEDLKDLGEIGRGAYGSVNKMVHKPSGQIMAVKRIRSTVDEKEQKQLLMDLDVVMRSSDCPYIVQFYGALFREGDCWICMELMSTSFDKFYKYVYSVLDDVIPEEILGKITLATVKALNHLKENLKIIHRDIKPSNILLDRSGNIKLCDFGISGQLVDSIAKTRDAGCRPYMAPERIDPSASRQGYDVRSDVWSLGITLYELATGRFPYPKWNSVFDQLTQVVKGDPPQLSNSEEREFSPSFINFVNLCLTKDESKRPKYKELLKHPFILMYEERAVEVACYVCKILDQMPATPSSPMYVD", "settings": "low nanomolar concentrations; cited from earlier work"}, "[2]": {"test_system": "array of over 9,000 human proteins", "experiment": "ProtoArray Human Protein Microarray hybridization", "type": "binding", "protocol": "FIGS. 19A-D. KBU2046 binds to intact cells, but not to isolated proteins. (A) Chemical structure of KBU2046 linked to biotin (KBU2046-biotin). […] PC3-M cells were pre-treated with 10 μM KBU2046 or with KBU2046-biotin for three days, and single cell motility assays conducted. Data are the mean±SEM. […] PC3-M cells were labeled with […]+/−10 μM free KBU2046, followed by detection with FITC-streptavidin, and visualization by fluorescent microscopy (with equal exposure times). (D) Protein array hybridization. KBU2046-biotin was hybridized to ProtoArray® Human Protein Microarray's at 0.5 and 10 μM with and without 10-fold excess free KBU2046. Proteins were first sought that met the following criteria, and did so at both 0.5 and 10 μM concentrations of KBU2046-biotin (in the absence of free KBU2046): Z-Score greater than 2.5, Z-Factor greater than 0.5, CI P-value less than 0.05, negative control value <2,000 (relative fluorescence units; RFUs), and a signal/negative control signal of >10 and >5 for 10 μM and 0.5 μM conditions, respectively. This yielded 3 proteins, shown in table, for an initial hit rate of 0.03%. It was then required that free KBU2046 inhibit binding by >75% of the two remaining candidates, eliminating isovaleryl-CoA dehydrogenase (ICD). […] The positive control used in protein arrays was staurosporine. Staurosporine is similar to genistein in that both are small compound natural products that are broad spectrum kinase inhibitors. […] The vast majority of these proteins were kinases. Both HSP90β and CDC37 were present on the protein arrays, and were not bound by KBU2046-biotin."}, "PC3-M cells [3]": {"test_system": "PC3-M cells", "experiment": "Cell labeling with FITC-streptavidin detection", "type": "cell-based, human", "settings": "+/−10 μM free KBU2046"}, "PC3-M cells [4]": {"test_system": "PC3-M cells", "experiment": "Single cell motility assay with KBU2046-biotin", "type": "cell-based, human", "settings": "10 μM, three days", "protocol": "PC3-M cells were pre-treated with 10 μM KBU2046 or with KBU2046-biotin for three days, and single cell motility assays conducted.\nFIGS. 23A-C. […] PC3-M cells were pre-treated with 10 μM KBU2046 or with KBU2046-biotin for three days, and single cell motility assays conducted."}}}
{"smiles": "O=c1c(-c2ccc(O)cc2)coc2cc(O)cc(O)c12", "note": "[genistein, 4′,5,7-trihydroxyisoflavone]", "values": [{"measurement": "changes in protein phosphorylation", "setting": "[1]", "result": "widespread changes in protein phosphorylation"}, {"measurement": "inhibition of MKK4 kinase activity (literature)", "setting": "MKK4", "result": "inhibited the kinase activity"}]}
{"smiles": "CN[C@@H]1C[C@H]2O[C@@](C)([C@@H]1OC)n1c3ccccc3c3c4c(c5c6ccccc6n2c5c31)C(=O)NC4", "note": "[staurosporine, reference compound]", "values": [{"measurement": "number of proteins bound at >/=10 fold above background", "setting": "[2]; positive control", "result": 214, "unit": "proteins"}]}
{"smiles": "O=C(CCCC[C@@H]1SC[C@@H]2NC(=O)N[C@@H]21)NCCOCCOCCOCCOc1ccc2c(c1)OCC(c1ccc(F)cc1)C2=O", "note": "(stereo partly shown) [KBU2046-biotin]", "values": [{"measurement": "binding to protein array", "setting": "[2]; 0.5 and 10 μM", "result": "lack of binding"}, {"measurement": "initial hit rate on protein array", "setting": "[2]; 0.5 and 10 μM, before competition criterion", "result": 0.03, "unit": "%"}, {"measurement": "labeling of intact cells", "setting": "PC3-M cells [3]", "result": "labels cells in a manner that can be competed off"}, {"measurement": "biological activity in single cell motility", "setting": "PC3-M cells [4]", "result": "biologically active"}]}
